The source of these data is patent publication US10301263B2, “Anticonvulsant compound” (Royal Holloway and Bedford New College, priority 2014, dated 2019).

Data set [1] concerns rat entorhinal cortex-hippocampus slices. The conditions noted are these: PTZ-induced seizure-like activity in rat hippocampal slices; Chang et al., 2013; cited from earlier work.
Data set [2] deals with Metrazol-induced clonic seizures. The conditions noted are these: scMET; Rowley and White, 2010; cited from earlier work.
In data set [3] the test system is histone deacetylase (HDAC). Nature of the data set: HDAC activity assay (fluorescent kit, human nuclear enzyme extracts from HeLa cells). The class given is biochemical. As to the method: FIG. 4b is a graph showing quantification of a histone deacetylase (HDAC) inhibition assay employing human nuclear enzyme extracts (from HeLa cells) as the source of HDAC activity shown as fitted dose-response curves for 4-BCCA;
Histone deacetylase activity was analyzed by using an in vitro commercial assay kit, the HDAC fluorescent activity assay/drug discovery kit HDAC activity (Biomol, Plymouth Meeting, Pa.). The assay was conducted at room temperature according to the manufacturer's protocol, using Trichostatin A (a HDAC inhibitor; at 1 μM concentration) as a positive control. Data were derived from at least triplicate experiments with each experiment comprising at least duplicate measurements (n=6) normalized to controls (without VPA or fatty acids).

Data set [4] deals with corneal kindled CF1 mice. The conditions noted are these: corneal kindled mouse; cited from earlier work.
For data set [5] the following is noted: DSMV IV, 2000; cited from earlier work.
The next data set relates to MES-induced seizures. Nature of the data set: Maximal electroshock test (MES). The data set is classed as in vivo, mice. The conditions noted are these: Mus musculus, ip. As to the method: The MES is a model for generalized tonic-clonic seizures which provides an indication of a compound's ability to prevent seizure spread when all neuronal circuits in the brain are maximally active. Animals are pretreated with compounds (100-125 mg/kg) by i.p. injection. Seizure activity was induced by delivery of 60 Hz of alternating current (50 mA in mice, 150 in rats) for 0.2 s through corneal electrodes which had been primed with an electrolyte solution containing an anesthetic agent (0.5% tetracaine HCl). An animal is considered “protected” from MES-induced seizures upon abolition of the hind limb tonic extensor component of the seizure (Swinyard et al., 1995; White et al., 1995; White et al., 2007).

The target of the next data set is AMPA receptors. Nature of the data set: AMPA receptor mediated current, AMPA receptors expressed in oocytes (FIG. 1). The class given is cell-based. As to the method:
Xenopus laevis oocytes were purchased from the European Xenopus Resource Centre, University of Portsmouth.
The bath solutions were perfused at a rate of 10 ml/min.

In data set [6] the test system is 6 Hz corneal stimulation seizures in CF1 mice. Nature of the data set: 6 Hz psychomotor seizure test. The conditions noted are these: Mus musculus, ip, 32 mA for 3 s. The class given is in vivo. The method, then:
Adult male CF1 mice (18-25 g) were pretreated intraperitoneally (i.p.) with each compound at 100-150 mg/kg. After pretreatment, each mouse was given a drop of 0.5% tetracaine hydrochloride to each eye, following by low-frequency (6 Hz) stimulation (32 mA) for 3 seconds delivered through corneal electrodes. Animals were manually restrained and released immediately following the stimulation and observed for the presence or absence of seizure activity at five time points (1/4, 1/2, 1, 2, and 4 hours). Typically, the 6 Hz stimulation results in a seizure characterized by a minimal clonic phase that is followed by stereotyped, automatistic behaviors, including twitching of the vibrissae, and Straub-tail. Animals not displaying such behaviors were considered protected.
The inventors first employed a low frequency (6 Hz), long duration (3 s) corneal stimulation model because numerous second generation anti-epileptic drugs show poor seizure control in this assay (and so such a model may provide evidence of efficacy in drug resistant epilepsy). In this model, compounds are pre-administered to mice via i.p. injection and mice are challenged with sufficient current to elicit a psychomotor response (32 mA for 3 s) (Toman et al., 1952). The model causes forelimb clonus and then automatistic behavior characteristic of limbic epilepsy in humans. […]

Data set [7] relates to rat entorhinal cortex-hippocampus slices. Nature of the data set: PTZ-induced epileptiform activity in entorhinal cortex-hippocampus slices (CA1 field recording). The data set is classed as cell-based. As to the method:
The preparation of entorhinal cortex-hippocampus slices and electrophysiological recording in CA1 were described previously (Armand et al., 1998; Chang and Walker, 2011). In brief, male rats (50-150 g) were decapitated after killing by intraperitoneal injection with an overdose of pentobarbitone (500 mg/kg). The brain was removed and preserved in oxygenated ice-cold sucrose solution in mM: NaCl 87, KCl 2.5, MgCl2 7, CaCl2 0.5, NaH2PO4 1.25, NaHCO3 26.2 sucrose 75, glucose 3. Transverse slices (350 μm) were prepared with a vibratome (VIBRATOME® 1500, Intracel Ltd) and were then stored in an interface chamber containing artificial cerebrospinal fluid solution (aCSF) in mM: NaCl 119, KCl 2.5, MgSO4 1.3, CaCl2 2.5, NaH2PO4 1, NaHCO3 26.2 glucose 16.6. The slices were stored for over one hour. During the experiment, the slices were transferred from the interface chamber into a submerged recording chamber and continuously perfused with prewarmed (about 36° C.) oxygenated (95% O2, 5% CO2) aCSF. A field potential recording was made by placing a glass microelectrodes filled with aCSF solution in stratum radiatum of CA1. A bipolar stimulating electrode was positioned in the Schaffer collateral/commissural fiber pathway in stratum radiatum to confirm slice viability. […] Anticonvulsant effects were evaluated by measuring the frequency of the discharges every minute.

Data set [8] deals with Metrazol-induced clonic seizures. Nature of the data set: Subcutaneous Metrazol seizure threshold test (scMET). The class given is in vivo, mice. The conditions noted are these: i.p. The method, then: Subcutaneous injection of Metrazol produces clonic seizures in animals. […] Animals were pretreated with each compound (100 mg/kg) in a similar manner to the MES test. Seizure activity was induced by administration of Metrazol (CD97: 85 mg/kg mice; 70 mg/kg rats) into skin in the midline of the neck.

Data set [9] has as its system corneal kindled CF1 mice. Put plainly: Corneal kindled mouse model (CKM). The conditions noted are these: i.p. The class given is in vivo. As to the method:
This model involves the use of corneal kindled mouse model for prediction of efficacy in human partial seizures (Rowley and White, 2010). Adult male CF1 mice (18-25 g) mice were stimulated through corneal electrodes (3 mA, 60 Hz, 3 seconds) after administration of 0.5% tetracaine hydrochloride to each eye. This procedure was carried out twice daily for an average of 12 days.
After 5-7-days stimulation-free period once the mice were fully kindled, the test compounds were administrated (100 mg/kg, i.p.). Mice in each group were then tested at various time points (0.25, 0.5, 1, 2, 4 hours) after drug dosing. Mice displaying a seizure score <3 are considered protected.

In the case of `CCCC(CCC)C(=O)O` [valproic acid, 2-propylpentanoic acid], in data set [1], the “reduction in seizure activity” value is 23%. Moreover, the “equivalent effect (to EC50) dose” value in [2] is recorded as 191 mg/kg. The IC50 in data set [3] (HDAC extract derived from a human cell line, read-out: IC50 against HDAC) came to 2300 µM. In the data set with corneal kindled CF1 mice [4], the “equivalent activity (to EC50) dose” value is recorded as 174 mg/kg. Further, the “concentrations found in plasma” value in data set [5] was 400 to 700 µM.

Turning to `CCCC[C@H]1CC[C@H](C(=O)O)CC1` [Compound 4-BCCA, trans-4-butylcyclohexane carboxylic acid], the ED50 turned out to be 100 mg/kg in the data set on MES-induced seizures and 81 mg/kg in data set [6]. The “potency of AMPA receptors inhibition (as determined by IC50) relative to decanoic acid (DA) and 4-ethyloctanoic acid (4-EOA)” value at AMPA receptors is “comparable potency”. The HDAC inhibition result in data set [3] (FIG. 4B dose-response) was “no HDAC inhibition”. Moreover, the HDAC inhibitory effect entry in data set [3] (upto 10 mM, HDAC extract derived from a human cell line) is “does not cause significant inhibitory effect”. Also, the “epileptiform activity (frequency of PTZ-induced burst discharges)” value in data set [7] (PTZ 2 mM, K+ 6 mM, 20-40 minute treatment, n=5, 1 mM) is 1.7±1.5 % of baseline. Moreover, the “block in seizure activity” value in data set [7] (PTZ-induced seizure-like activity in rat hippocampal slices) worked out at 100%. Moreover, the figures for the EC50 value (in data set [8]; in the data set with corneal kindled CF1 mice [9]) were around 150 mg/kg and 44 mg/kg, respectively.
